Experimental data from US10765114B2, “4-amino-6-(pyridyl and 2-substitutedphenyl)-picolinates and 6-amino-2-(pyridyl and 2-substitutedphenyl)-pyrimidine-4-carboxylates and their use as herbicides” (Dow AgroSciences LLC, priority 2013, dated 2020).

System: Key Grass and Sedge Weeds as well as Grass Crops
Assay: Post-Emergent Test II (Table 6)
Type: in vivo
Conditions: post-emergence, 336 h, CYPSS, 140 g ai/ha, 14 days after application, read-out: Visual Growth Reduction (%) 14 Days After Application CYPSS
In short: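 Plants grown in a greenhouse (~15 h photoperiod, 23-29° C day) to first or second true leaf stage were sprayed post-emergence at 187 L/ha with compound in acetone/DMSO-based aqueous spray containing crop oil concentrate and surfactant, applied at a high rate plus ½× to 1/16× serial rates. Injury was scored visually 14 days later, 0-100% versus untreated plants.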

Row | Compound | pest or weed control at 140 g/ha
1 | COC(=O)c1nc(-c2ccc(Cl)nc2OC)cc(N)c1Cl [Compound 48] | 0 to 29%

Same assay, conditions: post-emergence, 336 h, DIGSA: crabgrass (Digitaria sanguinalis), 70 g ai/ha, 14 days after application, read-out: Visual Growth Reduction (%) 14 Days After Application DIGSA

Row | Compound | pest or weed control at 70 g/ha
2 | COC(=O)c1nc(-c2ccc(Cl)nc2OC)cc(N)c1Cl [Compound 48] | 0 to 29%

Same assay, conditions: post-emergence, 336 h, DIGSA: crabgrass (Digitaria sanguinalis), 140 g ai/ha, 14 days after application, read-out: Visual Growth Reduction (%) 14 Days After Application DIGSA

Row | Compound | pest or weed control at 140 g/ha
3 | COC(=O)c1nc(-c2ccc(Cl)nc2OC)cc(N)c1Cl [Compound 48] | 0 to 29%

Same assay, conditions: post-emergence, 336 h, ECHSS, 70 g ai/ha, 14 days after application, read-out: Visual Growth Reduction (%) 14 Days After Application ECHSS

Row | Compound | pest or weed control at 70 g/ha
4 | COC(=O)c1nc(-c2ccc(Cl)nc2OC)cc(N)c1Cl [Compound 48] | 0 to 29%

Same assay, conditions: post-emergence, 336 h, ECHSS, 140 g ai/ha, 14 days after application, read-out: Visual Growth Reduction (%) 14 Days After Application ECHSS

Row | Compound | pest or weed control at 140 g/ha
5 | COC(=O)c1nc(-c2ccc(Cl)nc2OC)cc(N)c1Cl [Compound 48] | 0 to 29%

Same assay, conditions: post-emergence, 336 h, ORYSS (crop), 70 g ai/ha, 14 days after application, read-out: Visual Growth Reduction (%) 14 Days After Application ORYSS

Row | Compound | pest or weed control at 70 g/ha
6 | COC(=O)c1nc(-c2ccc(Cl)nc2OC)cc(N)c1Cl [Compound 48] | 0 to 29%

Same assay, conditions: post-emergence, 336 h, ORYSS (crop), 140 g ai/ha, 14 days after application, read-out: Visual Growth Reduction (%) 14 Days After Application ORYSS

Row | Compound | pest or weed control at 140 g/ha
7 | COC(=O)c1nc(-c2ccc(Cl)nc2OC)cc(N)c1Cl [Compound 48] | 0 to 29%

Same assay, conditions: post-emergence, 336 h, SETFA: giant foxtail (Setaria faberi), 70 g ai/ha, 14 days after application, read-out: Visual Growth Reduction (%) 14 Days After Application SETFA

Row | Compound | pest or weed control at 70 g/ha
8 | COC(=O)c1nc(-c2ccc(Cl)nc2OC)cc(N)c1Cl [Compound 48] | 0 to 29%

Same assay, conditions: post-emergence, 336 h, SETFA: giant foxtail (Setaria faberi), 140 g ai/ha, 14 days after application, read-out: Visual Growth Reduction (%) 14 Days After Application SETFA

Row | Compound | pest or weed control at 140 g/ha
9 | COC(=O)c1nc(-c2ccc(Cl)nc2OC)cc(N)c1Cl [Compound 48] | 0 to 29%

Same assay, conditions: post-emergence, 336 h, SORVU: grain sorghum (Sorghum vulgare), 70 g ai/ha, 14 days after application, read-out: Visual Growth Reduction (%) 14 Days After Application SORVU

Row | Compound | pest or weed control at 70 g/ha
10 | COC(=O)c1nc(-c2ccc(Cl)nc2OC)cc(N)c1Cl [Compound 48] | 0 to 29%

Same assay, conditions: post-emergence, 336 h, SORVU: grain sorghum (Sorghum vulgare), 140 g ai/ha, 14 days after application, read-out: Visual Growth Reduction (%) 14 Days After Application SORVU

Row | Compound | pest or weed control at 140 g/ha
11 | COC(=O)c1nc(-c2ccc(Cl)nc2OC)cc(N)c1Cl [Compound 48] | 0 to 29%

Same assay, conditions: post-emergence, 336 h, TRZSS (crop), 70 g ai/ha, 14 days after application, read-out: Visual Growth Reduction (%) 14 Days After Application TRZSS

Row | Compound | pest or weed control at 70 g/ha
12 | COC(=O)c1nc(-c2ccc(Cl)nc2OC)cc(N)c1Cl [Compound 48] | 0 to 29%

Same assay, conditions: post-emergence, 336 h, TRZSS (crop), 140 g ai/ha, 14 days after application, read-out: Visual Growth Reduction (%) 14 Days After Application TRZSS

Row | Compound | pest or weed control at 140 g/ha
13 | COC(=O)c1nc(-c2ccc(Cl)nc2OC)cc(N)c1Cl [Compound 48] | 0 to 29%

Same assay, conditions: post-emergence, 336 h, ZEAMX: maize, corn (Zea mays), 70 g ai/ha, 14 days after application, read-out: Visual Growth Reduction (%) 14 Days After Application ZEAMX

Row | Compound | pest or weed control at 70 g/ha
14 | COC(=O)c1nc(-c2ccc(Cl)nc2OC)cc(N)c1Cl [Compound 48] | 0 to 29%

Same assay, conditions: post-emergence, 336 h, ZEAMX: maize, corn (Zea mays), 140 g ai/ha, 14 days after application, read-out: Visual Growth Reduction (%) 14 Days After Application ZEAMX

Row | Compound | pest or weed control at 140 g/ha
15 | COC(=O)c1nc(-c2ccc(Cl)nc2OC)cc(N)c1Cl [Compound 48] | 45 to 59%

System: not given
Assay: not given
Conditions: not given

Row | melting point | Compound
16 | 109 to 111 °C | COC(=O)c1nc(-c2ccc(Cl)nc2OC)cc(N)c1Cl [Compound 48]
